Assay results published in publication PMC9927415, “Tyrosine Kinase Inhibitors Display Potent Activity against Cryptosporidium parvum” (Microbiology Spectrum, 2022).

Columns and labels:
[1] = molecular target: T1, PAK4 (Homo sapiens, UniProt O96013); experiment: KINOMEscan competitive binding; settings: n=1, read-out: Percent inhibition, PAK4
T1 construct: purchased DiscoverX (KINOMEscan)

[2] = molecular target: T2, TRKA (Homo sapiens, UniProt P04629); experiment: KINOMEscan competitive binding; settings: n=1, read-out: Percent inhibition, TRKA
T2 construct: purchased DiscoverX (KINOMEscan)

[3] = test system: HepG2 cells; experiment: Host cell cytotoxicity assay (CellTiter-Glo); settings: HepG2 CC50/C. parvum EC50
Description: HepG2 cells were grown in Eagle’s Minimum Essential Medium (MEM) containing 10% FBS, 1% nonessential amino acids (NEAA) and 1% penicillin/streptomycin to >50% confluence prior to harvesting. Cells were suspended in media and 3000 cells per well were added onto 384-well clear bottom plates. Prior to addition of the cell suspension, the screening compounds (250 nl) were predispensed into plates using a liquid handler. Plates were incubated for 48 h at 37°C, 5% CO2. After 48 h of incubation, plates were equilibrated at room temperature for 30 min before luminescence signal was measured using CellTiter-Glo Reagent. Plates were kept at room temperature for 10 min to stabilize the signal and then read using a ViewLux luminescence reader. The HepG2 CC50 (from the host cell cytotoxicity assays) and C. parvum mean EC50 (from parasite growth inhibition assays) values were used to calculate selectivity index.

[4] = test system: panel of 203 kinases; experiment: KINOMEscan competitive binding, whole panel; parameters: species or system human; settings: 10 μM; for number of other kinases strongly bound (≥99%): not including the CDKs and Aurora kinase A
Method in brief: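 Kinases were expressed as T7 bacteriophage fusions, and test compounds competed with immobilized ATP-site probe ligands for binding. Kinase remaining bound to the solid-support probe was quantified, and values are given as percentage inhibition.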

[5] = test system: JAK kinase domains; experiment: KINOMEscan competitive binding; parameters: species or system human; settings: kinome profiling, 10 μM
Source text: The kinases were expressed as fusions to T7 bacteriophage. This is a sensitive, competitive binding assay where test compounds were used to displace immobilized ATP-site binding probe ligands from kinases of interest. The amount of kinase that remained bound to the immobilized probe ligands on the solid support was quantified. Percentage inhibition data were was plotted on kinome trees using the web-based tool KinMap (http://www.kinhub.org/kinmap) ([60]).

[6] = molecular target: JAK3; parameters: method as in earlier work; settings: previous study; read-out: Ki against JAK3; cited from earlier work
[7] = molecular target: ROCK1; parameters: method as in earlier work; settings: previous study; read-out: Ki against ROCK1; cited from earlier work

T2 sequence (P04629 33-796): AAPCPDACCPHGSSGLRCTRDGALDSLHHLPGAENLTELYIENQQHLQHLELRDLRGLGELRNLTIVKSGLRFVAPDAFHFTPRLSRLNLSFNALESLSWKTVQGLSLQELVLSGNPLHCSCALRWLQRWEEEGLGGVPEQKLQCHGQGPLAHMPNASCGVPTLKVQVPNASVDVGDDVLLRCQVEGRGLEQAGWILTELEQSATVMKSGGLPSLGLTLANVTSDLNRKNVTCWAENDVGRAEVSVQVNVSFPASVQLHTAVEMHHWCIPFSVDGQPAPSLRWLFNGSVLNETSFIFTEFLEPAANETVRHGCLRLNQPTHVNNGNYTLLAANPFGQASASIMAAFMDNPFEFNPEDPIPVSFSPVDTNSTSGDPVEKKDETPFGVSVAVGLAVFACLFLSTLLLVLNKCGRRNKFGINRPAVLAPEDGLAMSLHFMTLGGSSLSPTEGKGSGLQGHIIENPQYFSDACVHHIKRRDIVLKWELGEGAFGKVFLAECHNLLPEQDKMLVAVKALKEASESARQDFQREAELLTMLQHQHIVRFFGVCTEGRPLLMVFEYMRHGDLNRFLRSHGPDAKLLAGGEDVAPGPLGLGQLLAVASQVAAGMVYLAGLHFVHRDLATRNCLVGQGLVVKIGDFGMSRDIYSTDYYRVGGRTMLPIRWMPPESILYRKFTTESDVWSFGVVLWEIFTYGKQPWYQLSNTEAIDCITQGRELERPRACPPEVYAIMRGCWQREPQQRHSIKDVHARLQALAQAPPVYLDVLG
T1 sequence (O96013 whole entry): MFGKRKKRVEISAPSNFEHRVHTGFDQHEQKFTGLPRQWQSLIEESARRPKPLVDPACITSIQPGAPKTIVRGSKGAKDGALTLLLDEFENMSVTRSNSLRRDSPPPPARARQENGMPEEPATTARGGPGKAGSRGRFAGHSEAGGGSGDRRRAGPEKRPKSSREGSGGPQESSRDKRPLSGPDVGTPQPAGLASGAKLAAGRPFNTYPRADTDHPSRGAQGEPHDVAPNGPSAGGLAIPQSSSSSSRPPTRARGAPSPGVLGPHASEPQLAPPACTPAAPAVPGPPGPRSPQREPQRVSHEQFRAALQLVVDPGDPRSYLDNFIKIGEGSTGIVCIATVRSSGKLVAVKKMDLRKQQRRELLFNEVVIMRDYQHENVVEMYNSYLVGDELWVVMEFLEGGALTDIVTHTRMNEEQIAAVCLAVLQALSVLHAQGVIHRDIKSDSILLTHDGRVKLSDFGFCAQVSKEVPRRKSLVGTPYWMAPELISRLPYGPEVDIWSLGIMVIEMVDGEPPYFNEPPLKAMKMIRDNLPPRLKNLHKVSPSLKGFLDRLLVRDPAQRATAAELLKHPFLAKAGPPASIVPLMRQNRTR

| Compound | inhibition at 10 µM [1] | inhibition at 10 µM [2] | Selectivity index [3] | number of other kinases strongly bound (≥99%) [4] | number of kinases with >99% inhibition [4] | binding to JAK kinase domains, in words [5] | Ki [6] | Ki [7] |
| --- | --- | --- | --- | --- | --- | --- | --- | --- |
| Cc1ccc(O)cc1Nc1ccnc(Nc2cccc(C(N)=O)c2)n1 [Compound 3] | 0% | 0% |  |  |  |  |  |  |
| Cc1ccc(O)cc1N(C)c1ccnc(Nc2cccc(S(N)(=O)=O)c2)n1 [Compound 4] | 0% | 0% |  |  |  |  |  |  |
| CN1CCN(c2ccc(Nc3nccc(-c4cnn5ncccc45)n3)cc2C#N)CC1 [Compound 1] | 95.7% | 91.3% | >100 | 50 |  |  |  |  |
| Clc1ccc(Nc2ncc(-c3ccccc3)s2)cc1 [Compound 10] | 0% | 0% |  |  |  |  |  |  |
| Nc1ncc2c(-c3ccncc3)c[nH]c2n1 [Compound 11] | 0% | 0% | >100 |  |  |  |  |  |
| Fc1cccc(COc2ccc(Nc3ncnc4c3CN(CCN3CCOCC3)CC4)cc2Cl)c1 [Compound 6] | 0% | 0% | >100 |  |  |  |  |  |
| COc1ccc(Nc2nccc(-c3cnn4ncccc34)n2)cc1 [Compound 2] | 0% | 0% | >100 | 28 |  |  |  |  |
| C[C@@H](Oc1cc(-c2cnc3ccccn23)sc1C(N)=O)c1ccccc1Cl [Compound 8] | 0% | 0% |  |  |  |  |  |  |
| COc1cc(Nc2nccc(-c3sc(N)nc3-c3cccc(NC(=O)c4c(F)cccc4F)c3)n2)cc(OC)c1OC [Compound 7] | 0% | 0% | 14 |  | 48 |  |  |  |
| c1ccc(COc2cccc(-c3ccnc4[nH]ccc34)c2)cc1 [Compound 9] | 0% | 0% |  |  |  | little binding | < 0.5 µM | < 0.5 µM |
